Test system: spleen cells
Set-up: species or system CD-1 mice
Details: mouse, in vivo

QS21
cell-mediated immune response (cytokine profile), in words: strong and balanced Th1 plus Th2 cytokine profile

Source: patent publication US20220282657A1 (priority 2016, published 2022)
